How the values were obtained:
Assay in all cases: relative viability (nuclei count vs DMSO), 5 days (fraction); higher = more cells survive
NCI-H23 = test system: NCI-H23
How it was run: (§1)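 Lung cancer cell lines were pin-tool dosed in 1536-well plates on the day after seeding, with either a lone drug or a fixed anchor-drug dose plus five library-drug doses (not always all listed) in √10 steps. Nuclei were counted on 4× images after 5 days. Relative viability is the ratio of treated-well to vehicle-well nuclei counts, with each value a median of duplicate plates.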

NCI-H596 = test system: NCI-H596
How it was run: as §1

LK-2 = test system: LK-2
How it was run: as §1

EKVX = test system: EKVX
How it was run: as §1

NCI-H2170 = test system: NCI-H2170
How it was run: as §1

SW 900 = test system: SW 900
How it was run: as §1

NCI-H520 = test system: NCI-H520
How it was run: as §1

NCI-H1792 = test system: NCI-H1792
How it was run: as §1

ChaGo-K-1 = test system: ChaGo-K-1
How it was run: as §1

COR-L 105 = test system: COR-L 105
How it was run: as §1

HCC-366 = test system: HCC-366
How it was run: as §1

LOU-NH91 = test system: LOU-NH91
How it was run: as §1

NCI-H1975 = test system: NCI-H1975
How it was run: as §1

A-427 = test system: A-427
How it was run: as §1

EMC-BAC-2 = test system: EMC-BAC-2
How it was run: as §1

NCI-H1734 = test system: NCI-H1734
How it was run: as §1

NCI-H441 = test system: NCI-H441
How it was run: as §1

NCI-H1755 = test system: NCI-H1755
How it was run: as §1

NCI-H1666 = test system: NCI-H1666
How it was run: as §1

PC-3 [JPC-3] = test system: PC-3 [JPC-3]
How it was run: as §1

NCI-H1563 = test system: NCI-H1563
How it was run: as §1

SK-MES-1 = test system: SK-MES-1
How it was run: as §1

H3255 = test system: H3255
How it was run: as §1

C=C1C(=O)O[C@@H](CCCCCCCC)[C@@H]1C(=O)O [C-75] + COc1cccc2cc(-c3nc([C@H]4CC[C@H](C(=O)O)CC4)n4ncnc(N)c34)[nH]c12 [OSI-027] (partner 0.5 µM)
relative viability (NCI-H23; first compound 0.08 µM): 0.742
relative viability (NCI-H23; first compound 0.253 µM): 0.698
relative viability (NCI-H23; first compound 0.8 µM): 0.575
relative viability (NCI-H23; first compound 2.53 µM): 0.375
relative viability (NCI-H23; first compound 8 µM): 0.448
relative viability (NCI-H596; first compound 0.08 µM): 0.887
relative viability (NCI-H596; first compound 0.253 µM): 0.798
relative viability (NCI-H596; first compound 0.8 µM): 0.72
relative viability (NCI-H596; first compound 2.53 µM): 0.622
relative viability (NCI-H596; first compound 8 µM): 0.678
relative viability (LK-2; first compound 0.08 µM): 0.209
relative viability (LK-2; first compound 0.253 µM): 0.212
relative viability (LK-2; first compound 0.8 µM): 0.222
relative viability (LK-2; first compound 2.53 µM): 0.16
relative viability (LK-2; first compound 8 µM): 0.145
relative viability (EKVX; first compound 0.08 µM): 0.699
relative viability (EKVX; first compound 0.253 µM): 0.979
relative viability (EKVX; first compound 0.8 µM): 0.651
relative viability (EKVX; first compound 8 µM): 0.68
relative viability (NCI-H2170; first compound 0.08 µM): 0.797
relative viability (NCI-H2170; first compound 0.253 µM): 0.78
relative viability (NCI-H2170; first compound 0.8 µM): 0.706
relative viability (NCI-H2170; first compound 2.53 µM): 0.321
relative viability (NCI-H2170; first compound 8 µM): 0.703
relative viability (SW 900; first compound 0.08 µM): 0.555
relative viability (SW 900; first compound 0.253 µM): 0.842
relative viability (SW 900; first compound 0.8 µM): 0.441
relative viability (SW 900; first compound 2.53 µM): 0.509
relative viability (SW 900; first compound 8 µM): 0.45
relative viability (NCI-H520; first compound 0.08 µM): 0.237
relative viability (NCI-H520; first compound 0.253 µM): 0.338
relative viability (NCI-H520; first compound 0.8 µM): 0.242
relative viability (NCI-H520; first compound 2.53 µM): 0.221
relative viability (NCI-H520; first compound 8 µM): 0.294
relative viability (NCI-H1792; first compound 0.08 µM): 0.694
relative viability (NCI-H1792; first compound 0.253 µM): 0.695
relative viability (NCI-H1792; first compound 0.8 µM): 0.636
relative viability (NCI-H1792; first compound 2.53 µM): 0.419
relative viability (NCI-H1792; first compound 8 µM): 0.712
relative viability (ChaGo-K-1; first compound 0.08 µM): 0.605
relative viability (ChaGo-K-1; first compound 0.253 µM): 0.545
relative viability (ChaGo-K-1; first compound 0.8 µM): 0.532
relative viability (ChaGo-K-1; first compound 2.53 µM): 0.422
relative viability (ChaGo-K-1; first compound 8 µM): 0.564
relative viability (COR-L 105; first compound 0.08 µM): 0.709
relative viability (COR-L 105; first compound 0.253 µM): 0.757
relative viability (COR-L 105; first compound 0.8 µM): 0.648
relative viability (COR-L 105; first compound 2.53 µM): 0.515
relative viability (COR-L 105; first compound 8 µM): 0.696
relative viability (HCC-366; first compound 0.08 µM): 1.06
relative viability (HCC-366; first compound 0.253 µM): 1.31
relative viability (HCC-366; first compound 0.8 µM): 0.897
relative viability (HCC-366; first compound 8 µM): 0.834
relative viability (LOU-NH91; first compound 0.08 µM): 0.725
relative viability (LOU-NH91; first compound 0.253 µM): 0.622
relative viability (LOU-NH91; first compound 0.8 µM): 0.68
relative viability (LOU-NH91; first compound 2.53 µM): 0.656
relative viability (LOU-NH91; first compound 8 µM): 0.781
relative viability (NCI-H1975; first compound 0.08 µM): 0.842
relative viability (NCI-H1975; first compound 0.253 µM): 0.672
relative viability (NCI-H1975; first compound 0.8 µM): 0.679
relative viability (NCI-H1975; first compound 2.53 µM): 0.436
relative viability (NCI-H1975; first compound 8 µM): 0.717
relative viability (A-427; first compound 0.08 µM): 0.516
relative viability (A-427; first compound 0.253 µM): 0.51
relative viability (A-427; first compound 0.8 µM): 0.488
relative viability (A-427; first compound 2.53 µM): 0.439
relative viability (A-427; first compound 8 µM): 0.39
relative viability (EMC-BAC-2; first compound 0.08 µM): 0.416
relative viability (EMC-BAC-2; first compound 0.253 µM): 0.385
relative viability (EMC-BAC-2; first compound 0.8 µM): 0.384
relative viability (EMC-BAC-2; first compound 2.53 µM): 0.269
relative viability (EMC-BAC-2; first compound 8 µM): 0.341
relative viability (NCI-H1734; first compound 0.08 µM): 0.593
relative viability (NCI-H1734; first compound 0.253 µM): 0.621
relative viability (NCI-H1734; first compound 0.8 µM): 0.481
relative viability (NCI-H1734; first compound 2.53 µM): 0.323
relative viability (NCI-H1734; first compound 8 µM): 0.455
relative viability (NCI-H441; first compound 0.08 µM): 0.512
relative viability (NCI-H441; first compound 0.253 µM): 0.713
relative viability (NCI-H441; first compound 0.8 µM): 0.678
relative viability (NCI-H441; first compound 2.53 µM): 0.36
relative viability (NCI-H441; first compound 8 µM): 0.548
relative viability (NCI-H1755; first compound 0.08 µM): 0.767
relative viability (NCI-H1755; first compound 0.253 µM): 0.724
relative viability (NCI-H1755; first compound 0.8 µM): 0.711
relative viability (NCI-H1755; first compound 2.53 µM): 0.604
relative viability (NCI-H1755; first compound 8 µM): 0.72
relative viability (NCI-H1666; first compound 0.08 µM): 0.798
relative viability (NCI-H1666; first compound 0.253 µM): 0.97
relative viability (NCI-H1666; first compound 0.8 µM): 0.885
relative viability (NCI-H1666; first compound 2.53 µM): 0.726
relative viability (NCI-H1666; first compound 8 µM): 0.786
relative viability (PC-3 [JPC-3]; first compound 0.08 µM): 0.772
relative viability (PC-3 [JPC-3]; first compound 0.253 µM): 0.806
relative viability (PC-3 [JPC-3]; first compound 0.8 µM): 0.736
relative viability (PC-3 [JPC-3]; first compound 2.53 µM): 0.668
relative viability (PC-3 [JPC-3]; first compound 8 µM): 0.749
relative viability (NCI-H1563; first compound 0.08 µM): 0.806
relative viability (NCI-H1563; first compound 0.253 µM): 0.856
relative viability (NCI-H1563; first compound 0.8 µM): 0.791
relative viability (NCI-H1563; first compound 2.53 µM): 0.718
relative viability (NCI-H1563; first compound 8 µM): 0.79
relative viability (SK-MES-1; first compound 0.08 µM): 0.738
relative viability (SK-MES-1; first compound 0.253 µM): 0.666
relative viability (SK-MES-1; first compound 0.8 µM): 0.568
relative viability (SK-MES-1; first compound 2.53 µM): 0.469
relative viability (SK-MES-1; first compound 8 µM): 0.549
relative viability (H3255; first compound 0.08 µM): 0.589
relative viability (H3255; first compound 0.253 µM): 0.7
relative viability (H3255; first compound 0.8 µM): 0.481
relative viability (H3255; first compound 2.53 µM): 0.562
relative viability (H3255; first compound 8 µM): 0.633

From the supplement of paper PMC10307832
